According to ChEMBL document CHEMBL5696442, “Discovery of type II inhibitors of TGFβ-activated kinase 1 (TAK1) and mitogen-activated protein kinase kinase kinase kinase 2 (MAP4K2)” (J Med Chem, 2015):

Assays:
[1] = target: T1, Mitogen-activated protein kinase 12 (Homo sapiens) (UniProt P53778); experiment: Inhibition of p38gamma Lys2 labeling site in human Huh-7 cell lysate at 1 uM by KiNativ Profiling analysis relative to control; type: subcellular
T1 sequence (whole entry): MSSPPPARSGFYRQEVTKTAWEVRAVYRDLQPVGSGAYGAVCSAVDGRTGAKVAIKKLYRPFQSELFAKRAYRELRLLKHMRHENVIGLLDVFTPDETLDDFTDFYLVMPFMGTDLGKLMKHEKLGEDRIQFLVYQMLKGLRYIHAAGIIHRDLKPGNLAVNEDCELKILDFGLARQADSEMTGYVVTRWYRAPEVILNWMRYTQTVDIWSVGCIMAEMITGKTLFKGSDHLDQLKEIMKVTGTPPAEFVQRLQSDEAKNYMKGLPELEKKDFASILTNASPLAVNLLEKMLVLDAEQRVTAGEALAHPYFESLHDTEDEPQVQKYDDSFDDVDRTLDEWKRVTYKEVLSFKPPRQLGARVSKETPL

[2] = target: Ribosomal protein S6 kinase alpha-1 (Homo sapiens) (UniProt Q15418); experiment: Inhibition of RSK1 Protein Kinase Domain in human A-375 cells at 0.05 uM by KiNativ Profiling analysis relative to control; type: cell-based
Chain of Ribosomal protein S6 kinase alpha-1 (Homo sapiens) (Q15418 whole entry, the tested form may be a part): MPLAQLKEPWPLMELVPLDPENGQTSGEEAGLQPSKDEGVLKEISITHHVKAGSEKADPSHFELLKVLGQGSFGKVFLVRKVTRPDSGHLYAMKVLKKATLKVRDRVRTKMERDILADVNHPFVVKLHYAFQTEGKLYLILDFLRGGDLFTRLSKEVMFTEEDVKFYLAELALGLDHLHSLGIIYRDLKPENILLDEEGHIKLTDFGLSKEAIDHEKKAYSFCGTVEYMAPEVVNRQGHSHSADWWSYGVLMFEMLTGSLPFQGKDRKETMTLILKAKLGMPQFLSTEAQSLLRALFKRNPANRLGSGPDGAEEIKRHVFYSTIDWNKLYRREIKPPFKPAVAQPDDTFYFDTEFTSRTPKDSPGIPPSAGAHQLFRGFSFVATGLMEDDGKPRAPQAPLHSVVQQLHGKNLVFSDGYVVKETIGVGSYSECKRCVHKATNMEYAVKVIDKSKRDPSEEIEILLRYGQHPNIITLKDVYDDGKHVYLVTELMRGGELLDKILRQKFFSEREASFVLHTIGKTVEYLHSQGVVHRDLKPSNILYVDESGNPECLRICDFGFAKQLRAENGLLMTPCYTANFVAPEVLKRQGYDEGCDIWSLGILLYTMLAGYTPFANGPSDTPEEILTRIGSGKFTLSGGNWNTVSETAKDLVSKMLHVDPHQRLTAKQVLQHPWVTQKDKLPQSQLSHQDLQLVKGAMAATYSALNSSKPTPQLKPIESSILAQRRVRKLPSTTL

[3] = target: Serine/threonine-protein kinase MARK2 (Homo sapiens) (UniProt Q7KZI7); experiment: Inhibition of MARK2 Lys2 labeling site harbouring DLKAENLLLDADMNIK in human A-375 cells at 0.05 uM by KiNativ Profiling analysis relative to control; type: cell-based
Chain of Serine/threonine-protein kinase MARK2 (Homo sapiens) (Q7KZI7 whole entry): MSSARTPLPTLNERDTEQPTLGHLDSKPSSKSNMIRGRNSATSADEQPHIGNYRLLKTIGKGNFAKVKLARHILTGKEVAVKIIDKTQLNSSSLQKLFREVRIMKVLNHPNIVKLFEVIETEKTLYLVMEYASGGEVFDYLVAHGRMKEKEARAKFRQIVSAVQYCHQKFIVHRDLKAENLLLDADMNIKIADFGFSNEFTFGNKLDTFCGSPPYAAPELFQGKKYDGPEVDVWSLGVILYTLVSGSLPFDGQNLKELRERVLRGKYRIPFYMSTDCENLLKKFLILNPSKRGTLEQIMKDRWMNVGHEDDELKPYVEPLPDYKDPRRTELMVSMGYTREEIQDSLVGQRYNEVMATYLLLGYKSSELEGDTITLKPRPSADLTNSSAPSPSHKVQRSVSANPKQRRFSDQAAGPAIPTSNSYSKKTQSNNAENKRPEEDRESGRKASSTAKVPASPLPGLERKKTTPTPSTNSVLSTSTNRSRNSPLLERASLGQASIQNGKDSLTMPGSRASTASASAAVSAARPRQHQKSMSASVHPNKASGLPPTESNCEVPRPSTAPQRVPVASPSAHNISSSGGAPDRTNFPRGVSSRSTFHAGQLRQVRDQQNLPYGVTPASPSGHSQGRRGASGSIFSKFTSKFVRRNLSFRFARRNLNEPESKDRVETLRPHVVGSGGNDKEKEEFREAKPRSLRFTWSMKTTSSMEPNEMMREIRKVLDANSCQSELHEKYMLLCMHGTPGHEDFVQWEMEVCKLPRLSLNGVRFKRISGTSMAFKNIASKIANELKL

[4] = target: Serine/threonine-protein kinase 24 (Homo sapiens) (UniProt Q9Y6E0); experiment: Inhibition of MST3 Lys2 labeling site harbouring DIKAANVLLSEHGEVK in human A-375 cells at 0.05 uM by KiNativ Profiling analysis relative to control; type: cell-based
Chain of Serine/threonine-protein kinase 24 (Homo sapiens) (Q9Y6E0 whole entry, looked up): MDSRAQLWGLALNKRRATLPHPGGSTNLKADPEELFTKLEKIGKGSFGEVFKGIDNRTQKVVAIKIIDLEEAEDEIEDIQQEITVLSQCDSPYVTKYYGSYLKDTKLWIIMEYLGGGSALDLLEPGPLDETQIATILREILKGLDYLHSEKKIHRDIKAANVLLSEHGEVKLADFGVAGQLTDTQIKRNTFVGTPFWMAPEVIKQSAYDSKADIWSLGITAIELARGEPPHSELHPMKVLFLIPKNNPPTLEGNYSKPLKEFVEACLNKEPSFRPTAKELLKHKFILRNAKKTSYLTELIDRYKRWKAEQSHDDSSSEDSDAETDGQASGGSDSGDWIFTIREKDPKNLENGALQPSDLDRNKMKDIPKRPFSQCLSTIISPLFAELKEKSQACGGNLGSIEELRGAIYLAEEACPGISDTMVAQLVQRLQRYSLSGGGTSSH

[5] = target: Mitogen-activated protein kinase 9 (Homo sapiens, UniProt P45984); experiment: Inhibition of JNK2 (unknown origin) Lys2 labeling site by KiNativ Profiling analysis
Chain of Mitogen-activated protein kinase 9 (P45984 whole entry): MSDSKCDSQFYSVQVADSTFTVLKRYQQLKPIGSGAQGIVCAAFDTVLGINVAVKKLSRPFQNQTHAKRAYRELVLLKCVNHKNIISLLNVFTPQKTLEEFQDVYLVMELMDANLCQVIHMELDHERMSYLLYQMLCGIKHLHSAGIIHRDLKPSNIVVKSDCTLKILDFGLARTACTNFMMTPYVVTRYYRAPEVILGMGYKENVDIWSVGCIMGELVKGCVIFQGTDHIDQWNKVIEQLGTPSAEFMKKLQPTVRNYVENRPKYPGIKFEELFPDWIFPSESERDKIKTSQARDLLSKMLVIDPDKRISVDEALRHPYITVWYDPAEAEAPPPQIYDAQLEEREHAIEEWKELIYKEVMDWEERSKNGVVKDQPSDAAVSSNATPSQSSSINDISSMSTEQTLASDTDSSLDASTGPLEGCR

[6] = target: Serine/threonine-protein kinase WNK2 (Homo sapiens) (UniProt Q9Y3S1); experiment: Inhibition of Wnk2 ACT labeling site in human A-375 cells at 0.05 uM by KiNativ Profiling analysis relative to control; type: cell-based
Chain of Serine/threonine-protein kinase WNK2 (Homo sapiens) (Q9Y3S1 whole entry): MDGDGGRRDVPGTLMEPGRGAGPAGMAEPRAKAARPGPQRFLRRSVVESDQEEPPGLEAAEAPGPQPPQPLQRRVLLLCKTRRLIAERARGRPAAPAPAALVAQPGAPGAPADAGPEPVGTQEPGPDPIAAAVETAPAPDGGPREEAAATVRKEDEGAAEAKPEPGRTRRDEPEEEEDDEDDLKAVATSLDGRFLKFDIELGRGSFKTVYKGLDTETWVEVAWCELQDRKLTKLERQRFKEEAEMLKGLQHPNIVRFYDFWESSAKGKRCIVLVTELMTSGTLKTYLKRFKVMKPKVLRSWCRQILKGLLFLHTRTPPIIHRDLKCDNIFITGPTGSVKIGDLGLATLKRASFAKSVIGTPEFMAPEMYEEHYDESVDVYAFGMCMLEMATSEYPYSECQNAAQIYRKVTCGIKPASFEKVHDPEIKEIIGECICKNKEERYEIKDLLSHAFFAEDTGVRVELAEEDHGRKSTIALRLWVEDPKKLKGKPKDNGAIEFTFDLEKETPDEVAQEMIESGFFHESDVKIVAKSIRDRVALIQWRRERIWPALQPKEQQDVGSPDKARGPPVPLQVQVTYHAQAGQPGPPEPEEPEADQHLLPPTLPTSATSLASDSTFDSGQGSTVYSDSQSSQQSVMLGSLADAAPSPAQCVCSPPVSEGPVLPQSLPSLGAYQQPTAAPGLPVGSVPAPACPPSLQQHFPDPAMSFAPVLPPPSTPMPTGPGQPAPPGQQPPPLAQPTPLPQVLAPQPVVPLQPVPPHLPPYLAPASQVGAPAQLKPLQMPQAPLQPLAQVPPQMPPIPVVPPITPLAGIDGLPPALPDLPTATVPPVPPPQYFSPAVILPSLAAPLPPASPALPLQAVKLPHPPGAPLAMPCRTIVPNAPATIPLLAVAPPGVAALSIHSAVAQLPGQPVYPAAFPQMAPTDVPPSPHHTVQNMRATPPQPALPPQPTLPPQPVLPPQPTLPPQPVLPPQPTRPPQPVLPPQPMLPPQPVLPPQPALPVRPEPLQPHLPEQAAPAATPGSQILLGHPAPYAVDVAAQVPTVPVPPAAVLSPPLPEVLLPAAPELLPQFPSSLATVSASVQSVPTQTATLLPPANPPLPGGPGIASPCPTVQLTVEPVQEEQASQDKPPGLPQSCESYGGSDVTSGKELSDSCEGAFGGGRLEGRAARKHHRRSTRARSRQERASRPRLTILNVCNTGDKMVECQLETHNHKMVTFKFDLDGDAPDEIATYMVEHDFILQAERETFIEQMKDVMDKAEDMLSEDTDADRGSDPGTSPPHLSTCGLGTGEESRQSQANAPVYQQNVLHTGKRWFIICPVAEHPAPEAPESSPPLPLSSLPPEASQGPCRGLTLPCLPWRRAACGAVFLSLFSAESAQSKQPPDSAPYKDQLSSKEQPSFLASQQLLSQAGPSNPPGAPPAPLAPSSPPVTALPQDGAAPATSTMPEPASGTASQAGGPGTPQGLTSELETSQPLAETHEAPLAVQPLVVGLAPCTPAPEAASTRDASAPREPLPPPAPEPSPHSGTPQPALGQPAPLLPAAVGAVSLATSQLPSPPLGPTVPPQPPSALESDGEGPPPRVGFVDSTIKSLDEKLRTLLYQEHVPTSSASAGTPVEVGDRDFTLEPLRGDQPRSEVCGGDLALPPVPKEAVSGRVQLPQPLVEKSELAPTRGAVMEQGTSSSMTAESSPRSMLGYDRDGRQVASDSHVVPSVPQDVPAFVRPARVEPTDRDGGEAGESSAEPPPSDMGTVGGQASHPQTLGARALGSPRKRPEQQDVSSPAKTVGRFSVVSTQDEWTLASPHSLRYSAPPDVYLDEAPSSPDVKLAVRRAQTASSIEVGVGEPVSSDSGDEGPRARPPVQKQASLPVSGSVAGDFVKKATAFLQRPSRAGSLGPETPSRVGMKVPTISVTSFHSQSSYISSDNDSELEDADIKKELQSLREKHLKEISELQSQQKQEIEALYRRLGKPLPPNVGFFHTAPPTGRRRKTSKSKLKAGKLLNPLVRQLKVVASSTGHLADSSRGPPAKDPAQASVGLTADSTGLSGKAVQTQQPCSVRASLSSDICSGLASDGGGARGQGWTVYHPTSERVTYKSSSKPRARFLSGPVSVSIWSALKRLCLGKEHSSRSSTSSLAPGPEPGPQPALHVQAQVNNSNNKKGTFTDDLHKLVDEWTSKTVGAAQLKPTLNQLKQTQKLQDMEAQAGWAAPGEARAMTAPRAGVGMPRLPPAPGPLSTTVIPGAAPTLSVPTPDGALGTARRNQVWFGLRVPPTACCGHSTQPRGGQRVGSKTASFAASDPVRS

[7] = target: T2, Mitogen-activated protein kinase kinase kinase 2 (Homo sapiens) (UniProt Q9Y2U5); experiment: Inhibition of MAP3K2 Lys1 labeling site harbouring VYLCYDVDTGRELAVKQVQFDPDSPETSKEVNALECEIQLLK in human A-375 cells at 5 uM by KiNativ Profiling analysis relative to control; type: cell-based
T2 sequence (whole entry): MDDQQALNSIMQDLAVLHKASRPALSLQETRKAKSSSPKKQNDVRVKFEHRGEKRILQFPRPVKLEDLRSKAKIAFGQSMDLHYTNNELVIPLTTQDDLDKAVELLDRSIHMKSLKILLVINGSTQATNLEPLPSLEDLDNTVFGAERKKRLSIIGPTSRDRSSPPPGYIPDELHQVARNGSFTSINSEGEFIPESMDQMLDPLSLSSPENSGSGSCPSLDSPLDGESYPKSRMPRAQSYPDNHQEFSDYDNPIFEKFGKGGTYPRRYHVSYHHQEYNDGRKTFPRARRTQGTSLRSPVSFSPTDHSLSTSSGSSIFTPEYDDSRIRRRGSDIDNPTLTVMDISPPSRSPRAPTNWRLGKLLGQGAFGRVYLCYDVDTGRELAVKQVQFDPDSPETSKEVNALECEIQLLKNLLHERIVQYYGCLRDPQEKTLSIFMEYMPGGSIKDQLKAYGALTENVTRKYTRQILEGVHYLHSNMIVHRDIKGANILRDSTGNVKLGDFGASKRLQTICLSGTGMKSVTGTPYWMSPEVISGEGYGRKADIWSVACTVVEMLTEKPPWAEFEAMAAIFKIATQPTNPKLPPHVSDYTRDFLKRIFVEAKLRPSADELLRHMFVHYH

[8] = target: T3, Scaffold protein ILK (Homo sapiens) (UniProt Q13418); experiment: Inhibition of ILK Lys1 labeling site in human A-375 cells at 5 uM by KiNativ Profiling analysis relative to control; type: cell-based
T3 sequence (whole entry): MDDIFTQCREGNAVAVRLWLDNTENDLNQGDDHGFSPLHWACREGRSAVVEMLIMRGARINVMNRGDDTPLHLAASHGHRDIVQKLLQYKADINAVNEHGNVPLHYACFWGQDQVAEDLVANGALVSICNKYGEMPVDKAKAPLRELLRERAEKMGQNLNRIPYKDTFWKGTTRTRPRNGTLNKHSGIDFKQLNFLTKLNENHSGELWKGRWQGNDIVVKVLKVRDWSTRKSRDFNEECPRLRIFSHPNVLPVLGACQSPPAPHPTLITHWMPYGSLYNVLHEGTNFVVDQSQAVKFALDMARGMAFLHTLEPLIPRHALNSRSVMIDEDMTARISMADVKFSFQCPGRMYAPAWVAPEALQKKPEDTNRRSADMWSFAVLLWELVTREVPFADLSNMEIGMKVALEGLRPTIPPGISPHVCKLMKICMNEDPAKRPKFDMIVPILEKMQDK

[9] = target: Serine/threonine-protein kinase 24 (Homo sapiens) (UniProt Q9Y6E0); experiment: Inhibition of MST3 ACT labeling site in human A-375 cells at 5 uM by KiNativ Profiling analysis relative to control; type: cell-based

| SMILES | inhibition [1] [%] | inhibition [2] [%] | inhibition [3] [%] | inhibition [4] [%] | IC50 [5] [µM] | inhibition [6] [%] | inhibition [7] [%] | inhibition [8] [%] | inhibition [9] [%] |
| --- | --- | --- | --- | --- | --- | --- | --- | --- | --- |
| CNc1cc(Oc2cc(C(=O)Nc3cc(N4CCN(C)CC4)cc(C(F)(F)F)c3)ccc2C)ncn1 | 12.8 | – | – | – | – | – | – | – | – |
| CCN1CCN(Cc2ccc(NC(=O)c3ccc(C)c(/C=C/c4cnc5[nH]ccc5c4OC)c3)cc2C(F)(F)F)CC1 | – | 1.4 | 11.6 | 3.2 | > 10 | 10.1 | 55.5 | -8.7 | 13.7 |
| CNc1cc(Oc2cc(C(=O)Nc3cc(-n4cnc(C)c4)cc(C(F)(F)F)c3)ccc2C)ncn1 | 5.5 | – | – | – | – | – | – | – | – |
| CCN1CCN(Cc2ccc(NC(=O)c3ccc(C)c(Oc4ccnc5[nH]ccc45)c3)cc2C(F)(F)F)CC1 | – | -4.7 | 19.5 | -2.7 | > 10 | 10.3 | 42.3 | -9.9 | 35.1 |
